The source of these data is patent US7045532B2 (Millennium Pharmaceuticals, Inc., priority 1999, dated 2006).

pKi: −log10 of the molar value.

Assay [1] deals with T1, ACE (Sigma, A2580) (Sus scrofa, UniProt F1RRW5).
T1 construct: ACE from porcine kidney; purchased Sigma A2580; host or cells: porcine kidney
T1 sequence (F1RRW5 34-1309): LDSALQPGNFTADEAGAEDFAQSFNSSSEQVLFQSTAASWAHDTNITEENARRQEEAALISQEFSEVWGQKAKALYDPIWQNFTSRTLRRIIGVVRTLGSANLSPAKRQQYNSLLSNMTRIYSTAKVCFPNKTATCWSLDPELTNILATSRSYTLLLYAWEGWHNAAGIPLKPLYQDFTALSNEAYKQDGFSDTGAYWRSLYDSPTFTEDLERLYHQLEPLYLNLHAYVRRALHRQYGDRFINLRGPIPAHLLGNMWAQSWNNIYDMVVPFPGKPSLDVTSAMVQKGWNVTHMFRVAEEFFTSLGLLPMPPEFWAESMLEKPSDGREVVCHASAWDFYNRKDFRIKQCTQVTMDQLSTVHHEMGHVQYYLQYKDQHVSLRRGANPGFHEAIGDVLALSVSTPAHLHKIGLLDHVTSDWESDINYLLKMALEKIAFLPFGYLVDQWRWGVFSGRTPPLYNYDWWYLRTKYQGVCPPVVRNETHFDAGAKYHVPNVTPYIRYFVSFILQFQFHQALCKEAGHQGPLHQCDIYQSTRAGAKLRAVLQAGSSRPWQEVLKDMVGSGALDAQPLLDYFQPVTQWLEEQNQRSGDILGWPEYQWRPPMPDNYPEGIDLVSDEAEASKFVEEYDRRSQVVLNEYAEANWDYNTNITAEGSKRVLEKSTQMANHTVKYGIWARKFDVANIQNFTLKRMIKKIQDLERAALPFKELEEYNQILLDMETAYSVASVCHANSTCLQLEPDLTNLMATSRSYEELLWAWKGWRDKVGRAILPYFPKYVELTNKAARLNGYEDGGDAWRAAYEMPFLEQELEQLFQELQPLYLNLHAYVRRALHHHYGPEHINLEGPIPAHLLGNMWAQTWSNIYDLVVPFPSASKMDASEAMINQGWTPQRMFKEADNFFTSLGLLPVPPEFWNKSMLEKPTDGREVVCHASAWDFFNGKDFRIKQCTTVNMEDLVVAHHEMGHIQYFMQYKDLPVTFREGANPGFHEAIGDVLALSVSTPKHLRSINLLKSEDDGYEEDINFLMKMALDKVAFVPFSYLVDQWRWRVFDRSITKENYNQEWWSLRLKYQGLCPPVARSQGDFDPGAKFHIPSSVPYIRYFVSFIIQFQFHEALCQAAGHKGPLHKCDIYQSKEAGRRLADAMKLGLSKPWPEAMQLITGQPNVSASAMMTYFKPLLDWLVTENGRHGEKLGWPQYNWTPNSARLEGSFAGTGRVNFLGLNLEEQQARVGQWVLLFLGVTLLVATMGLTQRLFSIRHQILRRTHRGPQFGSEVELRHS
Description: ACE enzymatic activity assay. In kind it is biochemical, porcine. The following applies: Ki class; compounds tested in 5% DMSO, 12 concentrations. The gist of the method:
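Fluorogenic substrate cleavage by 1 nM ACE, read at 320/405 nm after EDTA stop at ~30 min. Reactions at 25 °C, pH 7.5, in HEPES/NaCl/Brij-35 buffer; compounds tested at 12 concentrations in 5% DMSO.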

In assay [2] the target is T2, Carboxypeptidase A (Bos taurus, UniProt P00730).
T2 sequence (P00730 111-419): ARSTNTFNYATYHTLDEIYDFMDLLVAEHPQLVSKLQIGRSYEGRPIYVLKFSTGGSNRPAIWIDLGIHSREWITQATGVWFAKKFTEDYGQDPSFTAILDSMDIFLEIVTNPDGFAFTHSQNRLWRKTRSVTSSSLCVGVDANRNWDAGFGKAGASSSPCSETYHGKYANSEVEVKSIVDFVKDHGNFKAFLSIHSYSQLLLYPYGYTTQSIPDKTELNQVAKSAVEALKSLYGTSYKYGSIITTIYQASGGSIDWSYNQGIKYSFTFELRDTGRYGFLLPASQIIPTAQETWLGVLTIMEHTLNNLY
Put plainly: Carboxypeptidase A activity assay. In kind it is biochemical. As to conditions: Ki class; compounds tested in 5% DMSO, 12 concentrations. The gist of the method: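 Ki obtained by correcting apparent Ki for substrate, Ki=Kiapp/(1+[S]/Km), from 12-concentration series. Enzyme activity read by absorbance at 328 nm with 5% DMSO present, EDTA stop.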

Assay [3] addresses ACE-2 (Rattus norvegicus, UniProt Q5EGZ1). Description: ACE-2 Competitive Substrate Assay, rat ACE-2. As to conditions: Ki class; compounds tested in 5% DMSO, 12 concentrations. Type of assay: biochemical.
Assay [4] deals with T3, ACE-2 (Homo sapiens, UniProt Q9BYF1).
T3 construct: a stop codon inserted after the serine immediately preceding the transmembrane domain; made in house; host or cells: CHO K1 cells (transient transfection, purified from conditioned medium)
Description: ACE-2 Competitive Substrate Assay (ACS Assay). In kind it is biochemical. The following applies: for pKi: Ki class, compounds tested in 5% DMSO, 12 concentrations, read-out: Human ACE-2 Activity.

T3 sequence (Q9BYF1 18-740 limits assumed): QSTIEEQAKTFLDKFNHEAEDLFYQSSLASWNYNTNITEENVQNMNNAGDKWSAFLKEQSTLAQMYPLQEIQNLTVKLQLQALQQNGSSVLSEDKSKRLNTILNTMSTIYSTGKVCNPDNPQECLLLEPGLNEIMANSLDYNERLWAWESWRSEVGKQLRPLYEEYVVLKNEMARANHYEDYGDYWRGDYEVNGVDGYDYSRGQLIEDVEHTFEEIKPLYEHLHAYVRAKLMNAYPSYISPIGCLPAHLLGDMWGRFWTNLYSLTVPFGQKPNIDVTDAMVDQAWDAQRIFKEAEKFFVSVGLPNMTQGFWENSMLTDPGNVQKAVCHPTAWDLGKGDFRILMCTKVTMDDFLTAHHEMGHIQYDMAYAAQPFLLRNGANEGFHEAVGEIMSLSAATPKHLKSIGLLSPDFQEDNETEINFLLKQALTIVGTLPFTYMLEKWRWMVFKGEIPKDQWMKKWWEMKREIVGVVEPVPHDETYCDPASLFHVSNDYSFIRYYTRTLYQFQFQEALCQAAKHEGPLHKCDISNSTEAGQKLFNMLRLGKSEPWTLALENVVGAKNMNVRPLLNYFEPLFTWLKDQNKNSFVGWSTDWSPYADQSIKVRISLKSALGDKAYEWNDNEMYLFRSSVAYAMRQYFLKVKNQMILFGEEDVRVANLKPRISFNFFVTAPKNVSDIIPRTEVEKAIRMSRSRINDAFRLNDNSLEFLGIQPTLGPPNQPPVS
Chain of ACE-2 (Rattus norvegicus, UniProt Q5EGZ1) (Q5EGZ1 18-805): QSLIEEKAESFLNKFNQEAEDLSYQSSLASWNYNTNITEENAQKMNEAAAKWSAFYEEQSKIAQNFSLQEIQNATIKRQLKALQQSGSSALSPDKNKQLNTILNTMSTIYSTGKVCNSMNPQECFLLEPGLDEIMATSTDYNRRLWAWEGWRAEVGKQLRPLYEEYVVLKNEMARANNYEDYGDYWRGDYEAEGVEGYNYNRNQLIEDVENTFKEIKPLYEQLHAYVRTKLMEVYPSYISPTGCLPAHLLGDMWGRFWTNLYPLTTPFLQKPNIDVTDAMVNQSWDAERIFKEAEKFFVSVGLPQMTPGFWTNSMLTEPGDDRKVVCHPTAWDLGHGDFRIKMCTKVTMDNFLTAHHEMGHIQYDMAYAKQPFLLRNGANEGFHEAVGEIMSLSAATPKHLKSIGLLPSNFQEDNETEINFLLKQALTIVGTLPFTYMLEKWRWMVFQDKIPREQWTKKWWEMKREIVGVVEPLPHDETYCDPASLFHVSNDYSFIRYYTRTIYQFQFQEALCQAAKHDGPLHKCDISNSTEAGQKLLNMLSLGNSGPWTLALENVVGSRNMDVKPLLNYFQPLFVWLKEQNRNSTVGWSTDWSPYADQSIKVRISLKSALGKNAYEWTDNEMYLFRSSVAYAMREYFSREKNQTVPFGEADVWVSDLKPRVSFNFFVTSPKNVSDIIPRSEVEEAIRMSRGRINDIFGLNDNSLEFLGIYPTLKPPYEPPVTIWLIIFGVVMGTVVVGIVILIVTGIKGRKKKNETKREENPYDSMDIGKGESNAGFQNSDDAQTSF

For `CC(C)CC(N[C@H](Cc1c[nH]cn1)C(=O)O)C(=O)O` (single isomer, unassigned) [BI, 2-[1-Carboxy-2-(1H-imidazol-4-yl)-ethylamino]4-methyl-pentanoic acid], the pKi in assay [1] was less than 4.30; in assay [2] it was less than 4.30; in assay [3], less than 6.30; in assay [4] it was less than 6.30.

For the compound `CC(C)CC(N[C@@H](Cc1c[nH]cn1)C(=O)O)C(=O)O` (single isomer, unassigned) [BK, 2-[1-Carboxy-2-(1H-imidazol-4-yl)-ethylamino]4-methyl-pentanoic acid], the pKi was less than 4.30 in assay [1], less than 4.30 in assay [2], 6.30 to 7.00 in assay [3] and less than 6.30 in assay [4].

For the compound `COC(=O)[C@H](Cc1c[nH]cn1)NC(CC(C)C)C(=O)O` (single isomer, unassigned) [CT, 2-[2-(1H-Imidazol-4-yl)-1-methoxycarbonyl-ethylamino]-4-methyl-pentanoic acid], the pKi in assay [1] was less than 4.30; in assay [2], less than 4.30; in assay [3], less than 6.30; in assay [4], less than 6.30.

For the compound `CCCC(NC(Cc1c[nH]cn1)C(=O)O)C(=O)O` (single isomer, unassigned) [DJ, 2-[1-Carboxy-2-(1H-imidazol-4-yl)-ethylamino)pentanoic acid], the pKi in assay [1] is less than 4.30; in assay [2] it was less than 4.30; in assay [3], 6.30 to 7.00; in assay [4] it was less than 6.30.

Regarding `CCCC(N[C@@H](Cc1c[nH]cn1)C(=O)O)C(=O)O` (single isomer, unassigned) [DK, 2-[1-Carboxy-2-(1H-imidazol-4-yl)-ethylamino)pentanoic acid], the pKi is 4.30 to 5.00 in assay [1], less than 4.30 in assay [2], less than 6.30 in assay [3] and less than 6.30 in assay [4].

As to `CC(C)CC(N[C@@H](Cc1cn(Cc2ccccc2)cn1)C(=O)O)C(=O)O` (single isomer, unassigned) [DL, 2-[2-(1-Benzyl-1H-imidazol-4-yl)-1-carboxy-ethylamino]-4-methyl-pentanoic acid], the pKi in assay [1] is less than 4.30; in assay [2], less than 4.30; in assay [3], less than 6.30; in assay [4] it was less than 6.30.

Consider `O=C(O)C(Cc1ccc(O)cc1)N[C@@H](Cc1c[nH]cn1)C(=O)O` (single isomer, unassigned) [DN, 2-[1-Carboxy-2-(4-hydroxy-phenyl)-ethylamino]-3-(1H-imidazol-4-yl)-propionic acid], for which the pKi in assay [1] was less than 4.30; in assay [2], less than 4.30; in assay [3], less than 6.30; in assay [4] it was less than 6.30.

With `CCCCC(N[C@@H](Cc1c[nH]cn1)C(=O)O)C(=O)O` (single isomer, unassigned) [ED, 2-[1-Carboxy-2-(1H-imidazol-4-yl)-ethylamino]hexanoic acid], the pKi in assay [1] is less than 4.30; in assay [2], less than 4.30; in assay [3] it was 6.30 to 7.00; in assay [4] it was less than 6.30.

Take `CC(C)CC(N[C@@H](Cc1cncn1COCc1ccccc1)C(=O)O)C(=O)O` (single isomer, unassigned) [EN, 2-[2-(3-Benzyloxymethyl-3H-imidazol-4-yl)-1-carboxy-ethylamino]-4-methyl-pentanoic acid]: the pKi in assay [1] was less than 4.30; in assay [2], less than 4.30; in assay [3], 6.30 to 7.00; in assay [4] it was 6.30 to 7.00.

Consider `CC(C)CC(N[C@@H](Cc1cncn1COCc1ccccc1)C(=O)O)C(=O)O` (single isomer, unassigned) [EO, 2-[2-(3-Benzyloxymethyl-3H-imidazol-4-yl)-1-carboxy-ethylamino]-4-methyl-pentanoic acid], for which the pKi in assay [1] was less than 4.30; in assay [2] it was less than 4.30; in assay [3] it was less than 6.30; in assay [4], less than 6.30.

As to `CC(C)CC(N[C@@H](Cc1c[nH]cn1)C(N)=O)C(=O)O` (single isomer, unassigned) [EV, 2-[1-Carbamoyl-2-(1H-imidazol-4-yl)-ethylamino]4-methyl-pentanoic acid], the pKi in assay [1] is less than 4.30; in assay [2], less than 4.30; in assay [3] it was less than 6.30; in assay [4] it was less than 6.30.

For the compound `CC(C)CC(N[C@@H](Cc1c[nH]cn1)C(=O)Nc1ccc([N+](=O)[O-])cc1)C(=O)O` (single isomer, unassigned) [EX, 2-[2-(1H-Imidazol-4-yl)-1-(4-nitro-phenylcarbamoyl)ethylamino]-4-methyl-pentanoic acid], the pKi in assay [1] was less than 4.30; in assay [2], less than 4.30; in assay [3] it was less than 6.30; in assay [4], less than 6.30.

For the compound `CC(C)CC(N[C@@H](Cc1cncn1Cc1ccccc1)C(=O)O)C(=O)O` (single isomer, unassigned) [EZ, 2-[2-(3-Benzyl-3H-imidazol-4-yl)-1-carboxy-ethylamino]-4-methyl-pentanoic acid], the pKi was less than 4.30 in assay [1], less than 4.30 in assay [2], more than 7.00 in assay [3] and less than 6.30 in assay [4]. In addition, the “relative activity of the diastereomers EZ and FA” value in assay [4] (assay not given) was “more active diastereomer”.

With `CC(C)CC(N[C@@H](Cc1cncn1COCc1ccccc1)C(N)=O)C(=O)O` (single isomer, unassigned) [FC, 2-[2-(3-Benzyloxymethyl-3H-imidazol-4-yl)-1-carbamoyl-ethylamino]-4-methyl-pentanoic acid], the pKi in assay [1] was less than 4.30; in assay [2] it was less than 4.30; in assay [3], less than 6.30.

With `CC(C)CC(N[C@@H](Cc1cncn1COCc1ccccc1)C(=O)O)C(=O)O` (single isomer, unassigned) [FG, 2-[2-(3-Benzyloxymethyl-3H-imidazol-4-yl)-1-carboxy-ethylamino]-4-methyl-pentanoic acid], the pKi was less than 4.30 in assay [1], less than 4.30 in assay [2], less than 6.30 in assay [3] and less than 6.30 in assay [4].

`CCCCC(N[C@@H](Cc1cncn1Cc1ccccc1)C(=O)O)C(=O)O` (single isomer, unassigned) [FZ, 2-[2-(3-Benzyl-3H-imidazol-4-yl)-1-carboxy-ethylamino]-hexanoicacid]: the pKi in assay [1] was less than 4.30; in assay [2] it was less than 4.30; in assay [3], less than 6.30.

With `CCC(C)C(NC(Cc1cncn1Cc1ccccc1)C(=O)O)C(=O)O` (single isomer, unassigned) [GD, 2-[2-(3-Benzyl-3H-imidazol-4-yl)-1-carboxy-ethylamino]-3-methyl-pentanoic acid], the figures for the pKi in assay [1], in assay [2] and in assay [3] were less than 4.30, less than 4.30 and less than 6.30, respectively.

With `O=C(O)C(Cc1ccccc1)N[C@@H](Cc1cnc[nH]1)C(=O)O` (stereo partly drawn) [EQ, 2-(1-Carboxy-2-phenyl-ethylamino)-3-(1H-imidazol-4-yl)-propionicacid], the pKi in assay [1] is less than 4.30; in assay [2], 4.30 to 5.00; in assay [3], 6.30 to 7.00.
